This note sets out measurements from patent US20240216357A1 (SICHUAN HUIYU PHARMACEUTICAL CO., LTD., priority 2021, published 2024).

In one assay the test system is NCI-H1417 cells. As to the kind of experiment: In vitro cell proliferation detection (CellTiter-Glo, 7 days). It counts as cell-based. The conditions noted are these: NCI-H1417 cells, 7 days, CellTiter-Glo, read-out: NCI-H1417 proliferation inhibition IC50. In general terms: ATP-based viability assays read luminescence as a measure of living cells.
For a further assay, the target named is LSD1 (Homo sapiens (Human), UniProt O60341). As to the kind of experiment: LSD1 enzyme activity detection (HTRF). It counts as biochemical. The conditions noted are these: read-out: Inhibition of enzymatic activity of LSD1 IC50. On the technique in general: In TR-FRET formats the signal depends on donor and acceptor labels being close together.

Where a name gives a salt, the structure may show the parent alone. Read-outs that look alike come from different tables or passages of the source. A value given as a limit tells only on which side of the number the result lay.

In the case of `N#Cc1ccc(-c2cc(C(=O)N3C4CCC3CC(N)C4)sc2-c2ccc3oc(=O)[nH]c3c2)cc1F` (centres unmarked) [Example 214, 4-(5-(3-amino-8-azabicyclo [3.2.1]octan-8-carbonyl)-2-(2-carbonyl-2,3-dihydrobenzo[d]oxazol-5-yl)thiophen-3-yl)-2-fluoro benzonitrile hydrochloride], the IC50 in the assay on NCI-H1417 cells (Homo sapiens, 168 h) was determined as 493 nM; at LSD1 (HTRF, H3K4me1 substrate) it was 0.47 ± 0.13 nM.

As for `N#Cc1ccc(-c2cc(C(=O)N3C4CCC3CC(N)C4)sc2-c2cc3[nH]nnc3cc2F)cc1F` (centres unmarked) [Example 216, 4-(5-(3-amino-8-azabicyclo [3.2.1]octan-8-carbonyl)-2-(5-fluoro-1H-benzo [d][1,2,3]triazol-6-yl)thio-phen-3-yl)-2-fluorobenzo-nitrile hydrochloride], the IC50 with NCI-H1417 cells (Homo sapiens, 168 h) amounted to 20.9 nM; at LSD1 (HTRF, H3K4me1 substrate), 8.14 ± 1.84 nM.

Regarding `CC(C)(O)Cn1ncc2cc(F)c(-c3sc(C(=O)N4C5CCC4CC(N)C5)cc3-c3ccc(C#N)c(F)c3)cc21` (centres unmarked) [Example 217, 4-(5-(3-amino-8-azabicyclo [3.2.1]octan-8-carbonyl)-2-(5-fluoro-1-(2-hydroxy-2-methylpropyl)-1H-indazol-6-yl)thiophen-3-yl)-2-fluorobenzonitrile hydrochloride], the IC50 with NCI-H1417 cells (Homo sapiens, 168 h) stood at 67.8 nM; on LSD1 (HTRF, H3K4me1 substrate), 12.8 nM.

With `COc1ccc(-c2sc(C(=O)N3C4CCC3CC(N)C4)cc2-c2ccc(C#N)c(F)c2)cc1O` (centres unmarked) [Example 218, 4-(5-(3-amino-8-azabicyclo [3.2.1]octan-8-carbonyl)-2-(3-hydroxy-4-methoxy-phenyl)thiophen-3-yl)-2-fluorobenzonitrile], the IC50 with NCI-H1417 cells (Homo sapiens, 168 h) came out at 0.88 nM; on LSD1 (HTRF, H3K4me1 substrate), 0.15 ± 0.03 nM.

As for `Cc1noc2cc(-c3oc(C(=O)N4C5CCC4CC(N)C5)cc3-c3ccc(C#N)c(F)c3)c(F)cc12` (centres unmarked) [Example 219, 4-(5-(3-amino-8-azabicyclo[3.2.1]octane-8-carbonyl)-2-(5-fluoro-3-methylbenzo[d]isoxazol-6-yl)furan-3-yl)-2-fluorobenzonitrile hydrochloride], the IC50 with NCI-H1417 cells (Homo sapiens, 168 h) stood at 95.3 nM; on LSD1, 7.3 ± 0.46 nM.

As for `N#CCn1ncc2cc(F)c(-c3sc(C(=O)N4C5CCC4CC(N)C5)nc3-c3ccc(C#N)c(F)c3)cc21` (centres unmarked) [Example 221, 4-(2-(3-amino-8-azabicyclo[3.2.1]octan-8-carbonyl)-5-(1-(cyanomethyl)-5-fluoro-1H-indazol-6-yl)thiazol-4-yl)-2-fluorobenzonitrile hydrochloride], the IC50 worked out at 29.8 nM in the assay with NCI-H1417 cells (Homo sapiens, 168 h) and 10 ± 3.2 nM at LSD1 (HTRF, H3K4me1 substrate).

Take `Cc1noc2cc(-c3oc(C(=O)N4C5CCC4CC(N)C5)nc3-c3ccc(C#N)c(F)c3)c(F)cc12` (centres unmarked) [Example 222, 4-(2-(3-amino-8-azabicyclo[3.2.1]octane-8-carbonyl)-5-(5-fluoro-3-methylbenzo[d]isoxazol-6-yl)oxazol-4-yl)-2-fluorobenzonitrile hydrochloride]: the IC50 in the assay on NCI-H1417 cells (Homo sapiens, 168 h) stood at 41 nM; at LSD1 (HTRF, H3K4me1 substrate) it was 14.4 nM.

For the compound `COc1ccc(-c2sc(N3CCC(N)CC3)nc2-c2ccc(C#N)c(F)c2)cc1O` [Example 223, 4-(2-(4-aminopiperidin-1-yl)-5-(3-hydroxy-4-methoxyphenyl)thiazol-4-yl)-2-fluorobenzonitrile], the IC50 came out at 2.39 nM with NCI-H1417 cells (Homo sapiens, 168 h) and 0.1 ± 0.03 nM on LSD1 (HTRF, H3K4me1 substrate).

Turning to `COc1ccc(-c2nc(CN[C@@H]3C[C@H]3c3ccc(F)cc3)cc(C(=O)N3CCN(S(C)(=O)=O)CC3)n2)cc1F` [Example 225], the IC50 with NCI-H1417 cells (Homo sapiens, 168 h) is 27.8 nM; on LSD1 (HTRF, H3K4me1 substrate), 52.1 nM.

For the compound `CS(=O)(=O)N1CCN(C(=O)c2cc(CN[C@@H]3C[C@H]3c3ccc(F)cc3)nc(-c3ccc(-c4ccn[nH]4)cc3)n2)CC1` [Example 226], the IC50 was found to be 2.53 nM in the assay on NCI-H1417 cells (Homo sapiens, 168 h) and 19.8 nM on LSD1 (HTRF, H3K4me1 substrate).

As to `O=C(c1cc(CN[C@@H]2C[C@H]2c2ccc(F)cc2)nc(-c2ccc(-n3cccn3)cc2)n1)N1CCOCC1` [Example 229], the IC50 in the assay with NCI-H1417 cells (Homo sapiens, 168 h) amounted to 2.05 nM; at LSD1 (HTRF, H3K4me1 substrate), 13 nM.

On to `COC(=O)C1CCN(C(=O)c2cc(CN[C@@H]3C[C@H]3c3ccc(F)cc3)nc(-c3ccc(-n4cccn4)cc3)n2)CC1` [Example 231], for which the IC50 with NCI-H1417 cells (Homo sapiens, 168 h) turned out to be 30.2 nM; at LSD1 (HTRF, H3K4me1 substrate), 22.5 nM.

Regarding `CS(=O)(=O)N1CCN(C(=O)c2cc(CN[C@@H]3C[C@H]3c3ccc(F)cc3)nc(-c3ccn4ccnc4c3)n2)CC1` [Example 232], the IC50 in the assay on NCI-H1417 cells (Homo sapiens, 168 h) was 209 nM; at LSD1 (HTRF, H3K4me1 substrate) it was 548 nM.

With `O=C(O)C1CCN(C(=O)c2cc(CN[C@@H]3C[C@H]3c3ccc(F)cc3)nc(-c3ccc(-n4cccn4)cc3)n2)CC1` [Example 234], the IC50 in the assay with NCI-H1417 cells (Homo sapiens, 168 h) is 31 ± 8 nM; at LSD1 (HTRF, H3K4me1 substrate), 165 ± 8 nM.

For `Cc1noc2cc(-c3nc(CN[C@@H]4C[C@H]4c4ccc(F)cc4)cc(C(=O)N4CCN(S(C)(=O)=O)CC4)n3)c(F)cc12` [Example 235], the IC50 worked out at 98.3 nM with NCI-H1417 cells (Homo sapiens, 168 h) and 285 nM at LSD1 (HTRF, H3K4me1 substrate).

On to `O=C(NC1CCOCC1)c1cc(CN[C@@H]2C[C@H]2c2ccc(F)cc2)nc(-c2ccccc2)n1` [Example 237], for which the IC50 with NCI-H1417 cells (Homo sapiens, 168 h) came to 28.3 nM; at LSD1 (HTRF, H3K4me1 substrate), 423 ± 23 nM.

As for `CS(=O)(=O)N1CCN(C(=O)c2cc(CN[C@@H]3C[C@H]3c3ccc(F)cc3)nc(-c3ccc(F)c(O)c3)n2)CC1` [Example 238, (2-(4-fluoro-3-hydroxy phenyl)-6-(((1R,2S)-2-(4-fluorophenyl)cyclo-propyl)amino)methyl) pyrimidin-4-yl)(4-(methyl-sulfonyl)piperazin-1-yl) methanone hydrochloride], the IC50 in the assay with NCI-H1417 cells (Homo sapiens, 168 h) was found to be 5.31 nM; at LSD1 (HTRF, H3K4me1 substrate), 98 ± 1 nM.

Regarding `O=C(c1cc(CN[C@@H]2C[C@H]2c2ccc(F)cc2)nc(-c2cccnc2)n1)N1CCOCC1` [Example 240], the IC50 in the assay with NCI-H1417 cells (Homo sapiens, 168 h) stood at 29.5 nM; at LSD1 (HTRF, H3K4me1 substrate) it was 770 nM.

On to `COc1ccc(-c2nc(CN[C@@H]3C[C@H]3c3ccc(F)cc3)cc(C(=O)N3CCOCC3)n2)cc1O` [Example 241], for which the IC50 came out at 12.6 nM with NCI-H1417 cells (Homo sapiens, 168 h) and 26.9 nM at LSD1 (HTRF, H3K4me1 substrate).

Take `O=C(c1cc(CN[C@@H]2C[C@H]2c2ccc(F)cc2)nc(-c2ccc(-n3ccnn3)cc2)n1)N1CCOCC1` [Example 242]: the IC50 was determined as 2.83 nM with NCI-H1417 cells (Homo sapiens, 168 h) and 49.6 nM on LSD1 (HTRF, H3K4me1 substrate).

Regarding `O=C(c1cc(CN[C@@H]2C[C@H]2c2ccc(F)cc2)nc(-c2ccc(N3CCOCC3)cc2)n1)N1CCC(F)(F)CC1` [Example 244, (4,4-difluoropiperidin-1-yl)(6-(((1R,2S)-2-(4-f1uorophenyl)cyclopropyl)amino)methyl)-2-(4-morpholinophenyl) pyrimidin-4-yl)methanone hydrochloride], the IC50 with NCI-H1417 cells (Homo sapiens, 168 h) was found to be 5.07 nM; on LSD1 (HTRF, H3K4me1 substrate) it was 116 nM.

`O=C(c1cc(CN[C@@H]2C[C@H]2c2ccc(F)cc2)nc(-c2ccc(N3CCOCC3)cc2)n1)N1CCOCC1` [Example 245, (6-((1R,2S)-2-(4-fluorophenyl)cyclopropyl)amino)methyl)-2-(4-morpholinophenyl) pyrimidin-4-yl) (morpholino)methanone hydrochloride]: the IC50 in the assay with NCI-H1417 cells (Homo sapiens, 168 h) is 1.98 nM; at LSD1 (HTRF, H3K4me1 substrate), 39.1 nM.

With `COc1ccc(-c2nc(CN[C@@H]3C[C@H]3c3ccc(F)cc3)cc(C(=O)N3CCC(F)(F)CC3)n2)cc1O` [Example 247], the IC50 with NCI-H1417 cells (Homo sapiens, 168 h) was found to be 6.51 nM; on LSD1 (HTRF, H3K4me1 substrate), 65.8 nM.

Consider `O=C(c1cc(CN[C@@H]2C[C@H]2c2ccc(F)cc2)nc(-c2ccc(-n3ccnn3)cc2)n1)N1CCC(F)(F)CC1` [Example 248, (2-(4-(1H-1,2,3-triazol-1-yl)phenyl)-6-((((1R,2S)-2-(4-fluorophenyl)cyclo-propyl)amino)methyl)pyrimidin-4-yl)(4,4-difluoropiperidin-1-yl) methanone], for which the IC50 in the assay with NCI-H1417 cells (Homo sapiens, 168 h) came out at 2.98 nM; at LSD1 (HTRF, H3K4me1 substrate), 140 nM.

Turning to `O=C(NC1CCOCC1)c1cc(CN[C@@H]2C[C@H]2c2ccc(F)cc2)nc(-c2ccc(-n3ccnn3)cc2)n1` [Example 249], the IC50 was found to be 1.11 nM in the assay on NCI-H1417 cells (Homo sapiens, 168 h) and 15.8 nM at LSD1 (HTRF, H3K4me1 substrate).

`COc1ccc(C2CC2NCc2c(OC)cc(N3CCC(N)CC3)nc2-c2ccc(C#N)c(F)c2)cc1F` (centres unmarked) [Example 252]: the IC50 with NCI-H1417 cells was above 1000 nM; on LSD1 (HTRF, H3K4me1 substrate), 73.7 nM.

In the case of `CS(=O)(=O)N1CCN(C(=O)c2cc(CCN[C@@H]3C[C@H]3c3ccc(F)cc3)nc(-c3ccc(-n4cccn4)cc3)c2)CC1` [Example 255, (2-(4-(1H-pyrazol-1-yl)phenyl)-6-(2-(((1R,2S)-2-(4-fluorophenyl)cyclopropyl)amino)ethyl)pyridin-4-yl) (4-(methylsulfonyl)piperazin-1-yl)methanone], the IC50 was 29.1 nM in the assay with NCI-H1417 cells (Homo sapiens, 168 h) and 172 nM on LSD1 (HTRF, H3K4me1 substrate).

Regarding `CS(=O)(=O)N1CCN(C(=O)c2cc(CCN[C@@H]3C[C@H]3c3ccc(F)cc3)cc(-c3ccc(-n4cccn4)cc3)n2)CC1` [Example 256, (6-(4-(1H-pyrazol-1-yl)phenyl)-4-(2-(((1R,2S)-2-(4-fluorophenyl)cyclopropyl)amino)ethyl)pyridin-2-yl) (4-(methylsulfonyl)piperazin-1-yl)methanone], the IC50 in the assay on NCI-H1417 cells (Homo sapiens, 168 h) was found to be 10.8 nM; on LSD1 (HTRF, H3K4me1 substrate), 71.3 nM.

On to `N#Cc1ccc(-c2nc(CCCN[C@@H]3C[C@H]3c3ccc(F)cc3)cc(C(=O)N3CCC(F)(F)CC3)n2)cc1` [Example 258, 4-(4-(4,4-difluoropiperidine-1-carbonyl)-6-(3-(((1R,2S)-2-(4-fluorophenyl)cyclopropyl)amino)propyl)pyrimidin-2-yl)benzonitrile hydrochloride], for which the IC50 turned out to be 89.7 nM in the assay on NCI-H1417 cells (Homo sapiens, 168 h) and 232 nM at LSD1 (HTRF, H3K4me1 substrate).

Regarding `CS(=O)(=O)N1CCN(c2cc(CN[C@@H]3C[C@H]3c3ccc(F)cc3)nc(-c3ccc(C#N)cc3)n2)CC1` [Example 264, 4-(4-((((1R,2S)-2-(4-fluoro-phenyl)cyclopropyl)amino)methyl)-6-(4-(methylsulfonyl)piperazin-1-yl)pyrimidin-2-yl)benzonitrile], the IC50 with NCI-H1417 cells (Homo sapiens, 168 h) came to 27.4 nM; at LSD1 (HTRF, H3K4me1 substrate) it was 87.6 nM.

Turning to `COc1ccc(-c2c(OC)cc(N3CCC(N)CC3)cc2-c2ccc(C#N)c(F)c2)cc1O` [Example 267, 5′-(4-aminopiperidin-1-yl)-3-fluoro-3″-hydroxy-3′,4″-dimethoxy-[1,1′:2′,1″-terphenyl]-4-nitrile trifluoroacetate], the IC50 in the assay on NCI-H1417 cells (Homo sapiens, 168 h) amounted to 3.87 nM; at LSD1 (HTRF, H3K4me1 substrate) it was 1 ± 0.4 nM.
